Molecular target: T1, Dihydrofolate reductase (Pneumocystis jirovecii (strain RU7), UniProt A0A0W4ZHR8)
T1 sequence (A0A0W4ZHR8 whole entry): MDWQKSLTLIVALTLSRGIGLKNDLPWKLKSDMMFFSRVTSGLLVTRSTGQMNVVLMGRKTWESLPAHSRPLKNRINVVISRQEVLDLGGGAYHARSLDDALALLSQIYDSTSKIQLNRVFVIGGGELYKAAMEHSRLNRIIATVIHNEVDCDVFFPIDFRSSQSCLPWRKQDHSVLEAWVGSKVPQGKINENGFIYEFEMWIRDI
Assay: Not found
From the text: Not found

SMILES	IC50 [nM]
COc1ccccc1Sc1sc2nc(N)nc(N)c2c1C [US11001595, Compound 2]	177
COc1ccc(Sc2sc3nc(N)nc(N)c3c2C)cc1 [US11001595, Compound 4]	252

Reference: BindingDB's records for patent US11001595 (Duquesne University of The Holy Spirit, 2021)
